For one test, the target named is T1, GLP-2R R242^ECL1E (Homo sapiens, UniProt O95838, R242E).
T1 sequence (O95838 1-553 R242E): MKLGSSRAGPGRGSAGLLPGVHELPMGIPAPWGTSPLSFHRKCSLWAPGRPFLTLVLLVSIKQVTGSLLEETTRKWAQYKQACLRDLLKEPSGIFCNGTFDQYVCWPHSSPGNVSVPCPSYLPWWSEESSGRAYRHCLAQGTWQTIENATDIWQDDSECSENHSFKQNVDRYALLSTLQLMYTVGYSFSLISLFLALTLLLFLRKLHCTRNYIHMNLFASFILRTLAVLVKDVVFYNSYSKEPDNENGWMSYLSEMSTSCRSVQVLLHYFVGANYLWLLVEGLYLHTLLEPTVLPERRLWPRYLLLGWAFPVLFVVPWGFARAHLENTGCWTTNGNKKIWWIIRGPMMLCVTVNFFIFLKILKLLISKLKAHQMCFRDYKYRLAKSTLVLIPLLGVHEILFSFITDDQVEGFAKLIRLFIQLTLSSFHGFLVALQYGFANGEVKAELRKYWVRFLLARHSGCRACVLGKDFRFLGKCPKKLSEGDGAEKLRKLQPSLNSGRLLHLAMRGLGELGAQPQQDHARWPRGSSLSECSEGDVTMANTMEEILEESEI
The experiment in a line: cAMP accumulation, R242^ECL1E. It is filed as cell-based. Further details: WT (1–553); expressed in transfected cells; HEK 293T (cAMP). Particulars: HEK 293T, 30 min, RT, mean ± SEM, n ≥ 3 in duplicate; for Emax: HEK-293T, read-out: cAMP Emax (% WT); for EC50: read-out: cAMP pEC50 (converted). As to the method: (§1) They were seeded onto 6-well cell culture plates and transiently transfected with different GLP-2R constructs using Lipofectamine 2000 transfection reagent (Invitrogen, Carlsbad, CA, USA). After 24 h, the transfected cells were seeded onto 384-well microtiter plates (3000 cells per well) in HBSS supplemented with 5 mM HEPES, 0.1% (w/v) bovine serum albumin (BSA) and 0.5 mM 3-isobutyl-1- methylxanthine, and stimulated with increasing concentrations of GLP-2 for 30 min at RT. Eu and Ulight were diluted by cAMP detection buffer and added to the plates separately to terminate the reaction. Plates were incubated at RT for 60 min before measuring the fluorescence intensity at 620 nm and […] by an EnVision multilabel plate reader (PerkinElmer, Boston, USA).

A further test addresses T2, GLP-2R R242^ECL1A (Homo sapiens, UniProt O95838, R242A).
T2 sequence (O95838 1-553 R242A): T1 sequence (O95838 1-553 R242E) with E242A
The test is described as follows: cAMP accumulation, R242^ECL1A. It is filed as cell-based. The settings on record: 30 min, RT, mean ± SEM, n ≥ 3 in duplicate; for Emax: HEK-293T, read-out: cAMP Emax (% WT); for EC50: HEK 293T, read-out: cAMP pEC50 (converted). Further details: WT (1–553); expressed in transfected cells; HEK 293T (cAMP). The procedure:
as §1, with “HEK 293T cells were cultured in Dulbecco’s Modified Eagle’s Medium (DMEM) (Gibco, Waltham, USA) supplemented with 10% (v/v) fetal bovine serum (FBS) (Gibco) and 1% (v/v) sodium pyruvate (Gibco) at 37 °C, 5% CO2 in a humidified incubator. They” for “They”
For orientation: Changes in cAMP serve as a functional read-out for many G protein-coupled receptors.

Here are results for four compounds from publication PMC7785020, “A unique hormonal recognition feature of the human glucagon-like peptide-2 receptor” (Cell Research, 2020).

Positions count from the first letter of the chain named. Read-outs that look alike come from different tables or passages of the source. No end group written: not given here.

By Emax is commonly meant the greatest response seen or fitted, relative to the assay's reference. For the compound `CC[C@H](C)[C@H](NC(=O)[C@H](Cc1ccccc1)NC(=O)[C@H](CC(=O)O)NC(=O)[C@H](CCCNC(=N)N)NC(=O)[C@H](C)NC(=O)[C@H](C)NC(=O)[C@H](CC(C)C)NC(=O)[C@H](CC(N)=O)NC(=O)[C@H](CC(=O)O)NC(=O)[C@H](CC(C)C)NC(=O)[C@@H](NC(=O)[C@@H](NC(=O)[C@H](CC(N)=O)NC(=O)[C@H](CCSC)NC(=O)[C@H](CCC(=O)O)NC(=O)[C@H](CC(=O)O)NC(=O)[C@H](CO)NC(=O)[C@H](Cc1ccccc1)NC(=O)[C@H](CO)NC(=O)CNC(=O)[C@H](CC(=O)O)NC(=O)[C@H](C)NC(=O)[C@@H](N)Cc1c[nH]cn1)[C@@H](C)O)[C@@H](C)CC)C(=O)N[C@@H](CC(N)=O)C(=O)N[C@@H](Cc1c[nH]c2ccccc12)C(=O)N[C@@H](CC(C)C)C(=O)N[C@H](C(=O)N[C@@H](CCC(N)=O)C(=O)N[C@H](C(=O)N[C@@H](CCCCN)C(=O)N[C@H](C(=O)N[C@H](C(=O)N[C@@H](CC(=O)O)C(=O)O)[C@@H](C)O)[C@@H](C)CC)[C@@H](C)O)[C@@H](C)CC` [Human GLP-2 (1–33)], the Emax at GLP-2R R242^ECL1E (Table S3, R242E) turned out to be 108 ± 1.9%; at GLP-2R R242^ECL1E (Table S5, R242E), 103 ± 2.3%; on GLP-2R R242^ECL1A (Table S3, R242A), 107 ± 3.4%; on GLP-2R R242^ECL1A (Table S5, R242A), 104 ± 2.3%.
As for “HADGSFSDEMNTILDNLAAKEFIAWLVKGRG [Chimeric GLP-1/GLP-2 (20-33)]”, at GLP-2R R242^ECL1E (Table S5, R242E), the Emax is 103 ± 3.5% and the EC50 is 5.01 nM. In addition, at GLP-2R R242^ECL1A (Table S5, R242A), the Emax is 102 ± 3.1% and the EC50 is 1.26 nM.
For the compound “HADGSFTSDVSSYLEGQAARDFINWLIQTKITD [Chimeric GLP-1/GLP-2 (7-19)]”, at GLP-2R R242^ECL1E (Table S5, R242E), the Emax was found to be 108 ± 5.5% and the EC50 was 39.8 nM. At GLP-2R R242^ECL1A (Table S5, R242A), the Emax came to 106 ± 4.9% and the EC50 was 25.1 nM.
Taken in the same sequence, the figures for “HAEGTFSDEMNTILDNLAARDFINWLIQTKITD [Chimeric GLP-1/GLP-2 (1-6)]” were 108 ± 3.2%, 25.1 nM, 105 ± 3.2% and 7.94 nM.
